Each block holds one compound with its values, some of them ahead of it. Activity calls are given as the source filed them. The rule behind the calls is not given here. Starred links: 1 amine or outer side, 2 acyl side, 3 side chain; linkers in the order of their positions; H or OH if unused. Non-standard residues stand in square brackets, D forms with d. Residues, ends and D or L forms follow the SMILES beside them. *: point of attachment. X5 = Nc1ncnc2c1c(-c1ccc(Oc3ccccc3)cc1)nn2[C@@H]1CCCN(C(=O)/C=C/CN2CCN(CCOCCOCCC(=O)*)CC2)C1; X4 = COc1nc(OCc2cccc(-c3ccccc3)c2C)ccc1CNCCNC(=O)CCCc1cn(CC(=O)*)nn1; X1 = Cc1ccc(-n2nc3c(=O)n(CCCC(=O)*)nc(C)c3c2C)cc1; X2 = O=S(=O)(c1ccc(NC(=S)NCc2cccnc2)cc1)*; X3 = O=C(CCCCCCCN1CCN([*:1])CC1)[*:2]; Aoc = NCCCCCCCC(=O)O
How the values were obtained:
MIA PaCa-2 [1] = assay: Antiproliferative activity against human MIA PaCa-2 cells incubated for 72 hrs by CKK8 assay; format: functional, cell-based; conditions: MIA PaCa-2, 72 h
[2] = molecular target: T1, Nicotinamide phosphoribosyltransferase (Homo sapiens, UniProt P43490); assay: Peptide-mediated small molecule lysosome-targeting chimeric activity based NAMPT degradation in human A2780 cells incubated for 48 hrs by Western blot analysis; format: cell-based
[3] = molecular target: T1, Nicotinamide phosphoribosyltransferase; assay: Peptide-mediated small molecule lysosome-targeting chimeric activity based NAMPT degradation in human A2780 cells at 1 to 40 uM incubated for 48 hrs by Western blot analysis relative to control; format: cell-based; conditions: dose 1-40 µM
Target sequence in this assay (P43490 whole entry, looked up): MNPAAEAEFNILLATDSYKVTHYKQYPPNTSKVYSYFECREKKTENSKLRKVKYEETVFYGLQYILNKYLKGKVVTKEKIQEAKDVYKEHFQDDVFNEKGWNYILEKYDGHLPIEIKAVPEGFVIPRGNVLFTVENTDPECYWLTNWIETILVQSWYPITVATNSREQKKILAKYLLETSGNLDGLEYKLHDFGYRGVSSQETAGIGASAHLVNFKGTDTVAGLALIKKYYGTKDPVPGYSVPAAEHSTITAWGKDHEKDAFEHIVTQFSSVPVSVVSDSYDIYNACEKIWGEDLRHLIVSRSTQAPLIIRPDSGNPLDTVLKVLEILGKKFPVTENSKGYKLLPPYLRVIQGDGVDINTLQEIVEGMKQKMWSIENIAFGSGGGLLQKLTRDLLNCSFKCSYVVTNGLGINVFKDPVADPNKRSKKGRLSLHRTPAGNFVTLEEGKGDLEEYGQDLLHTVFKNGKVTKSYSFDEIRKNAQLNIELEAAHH

[4] = molecular target: T1, Nicotinamide phosphoribosyltransferase; assay: Peptide-mediated small molecule lysosome-targeting chimeric activity based NAMPT degradation in human MOLT-4 cells incubated for 48 hrs by Western blot analysis; format: cell-based
[5] = molecular target: T1, Nicotinamide phosphoribosyltransferase; assay: Peptide-mediated small molecule lysosome-targeting chimeric activity based NAMPT degradation in human MOLT-4 cells at 1 to 40 uM incubated for 48 hrs by Western blot analysis relative to control; format: cell-based; conditions: dose 1-40 µM
Target sequence in this assay (P43490 whole entry, looked up): as above

[6] = molecular target: T2, Programmed cell death 1 ligand 1 (Homo sapiens, UniProt Q9NZQ7); assay: Peptide-mediated small molecule lysosome-targeting chimeric activity based PD-L1 degradation in Baf-A1-treated human A549 cells upto 5 uM incubated for 48 hrs by Western blot analysis; format: cell-based
T2 sequence (Q9NZQ7 whole entry): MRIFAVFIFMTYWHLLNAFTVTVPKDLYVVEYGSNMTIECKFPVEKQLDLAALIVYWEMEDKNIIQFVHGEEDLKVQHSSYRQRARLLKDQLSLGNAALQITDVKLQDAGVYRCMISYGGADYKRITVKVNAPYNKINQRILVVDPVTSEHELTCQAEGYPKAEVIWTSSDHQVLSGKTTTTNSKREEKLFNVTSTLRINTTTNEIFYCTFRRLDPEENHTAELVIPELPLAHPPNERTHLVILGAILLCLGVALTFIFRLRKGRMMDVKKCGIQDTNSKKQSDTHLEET

[7] = molecular target: T2, Programmed cell death 1 ligand 1; assay: Peptide-mediated small molecule lysosome-targeting chimeric activity based PD-L1 degradation in human A549 cells at 0.1 to 5 uM incubated for 48 hrs by Western blot analysis relative to control; format: cell-based; conditions: dose 0.1-5 µM
[8] = molecular target: T2, Programmed cell death 1 ligand 1; assay: Peptide-mediated small molecule lysosome-targeting chimeric activity based PD-L1 degradation in human A549 cells incubated for 48 hrs by Western blot analysis; format: cell-based
[9] = molecular target: Tyrosine-protein kinase BTK (Homo sapiens) (UniProt Q06187); assay: Peptide-mediated small molecule lysosome-targeting chimeric activity based BTK degradation in human K562 cells at 10 uM incubated for 48 hrs by Western blot analysis relative to control; format: cell-based
Chain of Tyrosine-protein kinase BTK (Homo sapiens) (Q06187 whole entry): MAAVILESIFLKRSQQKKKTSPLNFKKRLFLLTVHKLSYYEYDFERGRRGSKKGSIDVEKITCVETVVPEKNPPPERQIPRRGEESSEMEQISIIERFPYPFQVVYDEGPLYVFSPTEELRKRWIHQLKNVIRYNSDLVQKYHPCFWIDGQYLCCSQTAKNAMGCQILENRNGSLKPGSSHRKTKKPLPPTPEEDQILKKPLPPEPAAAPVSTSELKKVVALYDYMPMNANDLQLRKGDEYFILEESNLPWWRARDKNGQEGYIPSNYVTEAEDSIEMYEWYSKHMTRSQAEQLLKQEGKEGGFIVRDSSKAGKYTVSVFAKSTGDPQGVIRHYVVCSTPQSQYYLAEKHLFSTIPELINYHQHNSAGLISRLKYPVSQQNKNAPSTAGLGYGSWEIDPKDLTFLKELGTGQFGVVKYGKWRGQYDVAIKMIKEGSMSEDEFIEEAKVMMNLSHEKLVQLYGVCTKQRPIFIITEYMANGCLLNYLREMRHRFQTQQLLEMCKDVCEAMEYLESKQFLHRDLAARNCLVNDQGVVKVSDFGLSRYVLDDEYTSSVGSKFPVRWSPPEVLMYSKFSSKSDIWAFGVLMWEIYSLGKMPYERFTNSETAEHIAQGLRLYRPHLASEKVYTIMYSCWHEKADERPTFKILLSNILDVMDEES

[10] = molecular target: T3, Retinal rod rhodopsin-sensitive cGMP 3',5'-cyclic phosphodiesterase subunit delta (Homo sapiens, UniProt O43924); assay: Peptide-mediated small molecule lysosome-targeting chimeric activity based PDE-delta degradation in human MIA PaCa-2 cells assessed as reduction in Erk phosphorylation at Thr202/Tyr204 at 0.1 to 5 uM incubated for 48 hrs by Western blot analysis; format: cell-based; conditions: dose 0.1-5 µM
T3 sequence (O43924 whole entry): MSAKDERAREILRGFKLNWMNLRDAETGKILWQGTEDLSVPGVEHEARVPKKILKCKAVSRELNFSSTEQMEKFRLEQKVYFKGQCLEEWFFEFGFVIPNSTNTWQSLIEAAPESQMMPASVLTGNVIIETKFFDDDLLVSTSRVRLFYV

MIA PaCa-2 [11] = assay: Induction of apoptosis in human MIA PaCa-2 cells assessed as late apoptotic cells at 10 uM incubated for 48 hrs by Annexin V-FITC/PI staining based flow cytometry (reference value: 2.90 %); format: functional
MIA PaCa-2 [12] = assay: Induction of apoptosis in human MIA PaCa-2 cells assessed as early apoptotic cells at 10 uM incubated for 48 hrs by Annexin V-FITC/PI staining based flow cytometry (reference value: 4.45 %); format: functional
MIA PaCa-2 [13] = assay: Induction of apoptosis in human MIA PaCa-2 cells assessed as necrotic cells at 5 uM incubated for 48 hrs by Annexin V-FITC/PI staining based flow cytometry (reference value: 0.55 %); format: functional
[14] = Metabolic stability in rat liver microsomes assessed as half life; format: ADME, Microsome
[15] = molecular target: T3, Retinal rod rhodopsin-sensitive cGMP 3',5'-cyclic phosphodiesterase subunit delta; assay: Peptide-mediated small molecule lysosome-targeting chimeric activity based PDE-delta degradation in Baf-A1-treated human MIA PaCa-2 cells at 0.5 to 1 uM incubated for 48 hrs by Western blot analysis; format: cell-based; conditions: dose 0.5-1 µM
MIA PaCa-2 [16] = assay: Induction of apoptosis in human MIA PaCa-2 cells assessed as viable cells at 5 uM incubated for 48 hrs by Annexin V-FITC/PI staining based flow cytometry (reference value: 92.1 %); format: functional; conditions: read-out: Activity
MIA PaCa-2 [17] = assay: Effect on total Erk in human MIA PaCa-2 cells at 0.1 to 5 uM incubated for 48 hrs by Western blot analysis; format: functional, cell-based; conditions: dose 0.1-5 µM
[18] = molecular target: T3, Retinal rod rhodopsin-sensitive cGMP 3',5'-cyclic phosphodiesterase subunit delta; assay: Peptide-mediated small molecule lysosome-targeting chimeric activity based PDE-delta degradation in human MIA PaCa-2 cells at 0.1 uM incubated for 48 hrs by Western blot analysis; format: cell-based
MIA PaCa-2 [19] = assay: Induction of apoptosis in human MIA PaCa-2 cells assessed as late apoptotic cells at 5 uM incubated for 48 hrs by Annexin V-FITC/PI staining based flow cytometry (reference value: 2.90 %); format: functional
MIA PaCa-2 [20] = assay: Induction of apoptosis in human MIA PaCa-2 cells assessed as early apoptotic cells at 20 uM incubated for 48 hrs by Annexin V-FITC/PI staining based flow cytometry (reference value: 4.45 %); format: functional
MIA PaCa-2 [21] = assay: Induction of apoptosis in human MIA PaCa-2 cells assessed as viable cells at 10 uM incubated for 48 hrs by Annexin V-FITC/PI staining based flow cytometry (reference value: 92.1 %); format: functional; conditions: read-out: Activity
MIA PaCa-2 [22] = assay: Effect on total Akt in human MIA PaCa-2 cells at 0.1 to 5 uM incubated for 48 hrs by Western blot analysis; format: functional, cell-based; conditions: dose 0.1-5 µM
[23] = molecular target: T3, Retinal rod rhodopsin-sensitive cGMP 3',5'-cyclic phosphodiesterase subunit delta; assay: Peptide-mediated small molecule lysosome-targeting chimeric activity based PDE-delta degradation in human MIA PaCa-2 cells assessed as reduction in Akt phosphorylation at S473 at 2 uM incubated for 48 hrs by Western blot analysis; format: cell-based
[24] = molecular target: T3, Retinal rod rhodopsin-sensitive cGMP 3',5'-cyclic phosphodiesterase subunit delta; assay: Peptide-mediated small molecule lysosome-targeting chimeric activity based PDE-delta degradation in human MIA PaCa-2 cells at 5 uM incubated for 48 hrs by Western blot analysis relative to control; format: cell-based
[25] = molecular target: T3, Retinal rod rhodopsin-sensitive cGMP 3',5'-cyclic phosphodiesterase subunit delta; assay: Peptide-mediated small molecule lysosome-targeting chimeric activity based PDE-delta degradation in human MIA PaCa-2 cells assessed as increase in lysosome-related organelles at 1 uM incubated for 48 hrs by TEM analysis; format: cell-based
MIA PaCa-2 [26] = assay: Induction of apoptosis in human MIA PaCa-2 cells assessed as necrotic cells at 10 uM incubated for 48 hrs by Annexin V-FITC/PI staining based flow cytometry (reference value: 0.55 %); format: functional
MIA PaCa-2 [27] = assay: Induction of apoptosis in human MIA PaCa-2 cells assessed as necrotic cells at 20 uM incubated for 48 hrs by Annexin V-FITC/PI staining based flow cytometry (reference value: 0.55 %); format: functional
[28] = molecular target: T3, Retinal rod rhodopsin-sensitive cGMP 3',5'-cyclic phosphodiesterase subunit delta; assay: Peptide-mediated small molecule lysosome-targeting chimeric activity based PDE-delta degradation in human MIA PaCa-2 cells incubated for 48 hrs by Western blot analysis; format: cell-based
[29] = Stability of compound in PBS buffer incubated for 48 hrs by HPLC analysis; format: physicochemical
MIA PaCa-2 [30] = assay: Induction of apoptosis in human MIA PaCa-2 cells assessed as viable cells at 20 uM incubated for 48 hrs by Annexin V-FITC/PI staining based flow cytometry (reference value: 92.1 %); format: functional; conditions: read-out: Activity
MIA PaCa-2 [31] = assay: Induction of apoptosis in human MIA PaCa-2 cells assessed as early apoptotic cells at 5 uM incubated for 48 hrs by Annexin V-FITC/PI staining based flow cytometry (reference value: 4.45 %); format: functional
MIA PaCa-2 [32] = assay: Induction of apoptosis in human MIA PaCa-2 cells assessed as late apoptotic cells at 20 uM incubated for 48 hrs by Annexin V-FITC/PI staining based flow cytometry (reference value: 2.90 %); format: functional

SMILES: Cc1ccc(-n2nc3c(=O)n(CCCC(=O)NCCCCCNc4cccc5c4C(=O)N(C4CCC(=O)NC4=O)C5=O)nc(C)c3c2C)cc1 (stereo unspecified)
IC50 (MIA PaCa-2 [1]): 9300 nM

SMILES: COc1nc(OCc2cccc(-c3ccccc3)c2C)ccc1CNCCNC(=O)CCCc1cn(CC(=O)NCC(=O)NCC(=O)N[C@@H](CCCNC(=N)N)C(=O)N[C@@H](CCCNC(=N)N)C(=O)N[C@@H](CCCNC(=N)N)C(=O)N[C@@H](CCCNC(=N)N)C(=O)N[C@@H](CCCNC(=N)N)C(=O)N[C@@H](CCCNC(=N)N)C(=O)N[C@@H](CCCNC(=N)N)C(=O)N[C@@H](CCCNC(=N)N)C(=O)N[C@@H](CCCNC(=N)N)C(=O)N[C@@H](CC(N)=O)C(=O)N2CCC[C@H]2C(=O)NCC(=O)N[C@@H](Cc2ccc(O)cc2)C(N)=O)nn1 (X4-GGRRRRRRRRRNPGY-NH2)
Activity [6]: inactive
Emax [7]: 92%
DC50 [8]: 200 nM

More lines, main results first:

DC50 [2]: 890 nM
Activity ([2]; dose 1-40 µM): Dose-Dependent Effect
Emax [3]: 93%
DC50 [4]: 7000 nM
Activity ([4]; dose 1-40 µM): Dose-Dependent Effect
Emax [5]: 90%
SMILES: N=C(N)NCCC[C@H](NC(=O)CNC(=O)CNC(=O)CNC(=O)CCCCCCCN1CCN(S(=O)(=O)c2ccc(NC(=S)NCc3cccnc3)cc2)CC1)C(=O)N[C@@H](CCCNC(=N)N)C(=O)N[C@@H](CCCNC(=N)N)C(=O)N[C@@H](CCCNC(=N)N)C(=O)N[C@@H](CCCNC(=N)N)C(=O)N[C@@H](CCCNC(=N)N)C(=O)N[C@@H](CCCNC(=N)N)C(=O)N[C@@H](CCCNC(=N)N)C(=O)N[C@@H](CCCNC(=N)N)C(=O)N[C@@H](CC(N)=O)C(=O)N1CCC[C@H]1C(=O)NCC(=O)N[C@@H](Cc1ccc(O)cc1)C(N)=O (X2-[X3]GGGRRRRRRRRRNPGY-NH2)

Emax [9]: 63%
SMILES: N=C(N)NCCC[C@H](NC(=O)CNC(=O)CNC(=O)CNC(=O)CCOCCOCCN1CCN(C/C=C/C(=O)N2CCC[C@@H](n3nc(-c4ccc(Oc5ccccc5)cc4)c4c(N)ncnc43)C2)CC1)C(=O)N[C@@H](CCCNC(=N)N)C(=O)N[C@@H](CCCNC(=N)N)C(=O)N[C@@H](CCCNC(=N)N)C(=O)N[C@@H](CCCNC(=N)N)C(=O)N[C@@H](CCCNC(=N)N)C(=O)N[C@@H](CCCNC(=N)N)C(=O)N[C@@H](CCCNC(=N)N)C(=O)N[C@@H](CCCNC(=N)N)C(=O)N[C@@H](CC(N)=O)C(=O)N1CCC[C@H]1C(=O)NCC(=O)N[C@@H](Cc1ccc(O)cc1)C(N)=O (X5-GGGRRRRRRRRRNPGY-NH2)

Activity [10]: Active
half-life [14]: 33.5 min
Activity [15]: inactive
Activity [18]: Active
Activity [23]: Active
Emax [24]: 89%
Activity [25]: Active
IC50 (MIA PaCa-2 [1]): 3600 nM
DC50 [28]: 230 nM
Activity ([28]; dose 0.1-5 µM): Dose-Dependent Effect
Stability [29]: Stable
SMILES: Cc1ccc(-n2nc3c(=O)n(CCCC(=O)NCCCCCCCC(=O)NCC(=O)NCC(=O)NCC(=O)N[C@@H](CCCNC(=N)N)C(=O)N[C@@H](CCCNC(=N)N)C(=O)N[C@@H](CCCNC(=N)N)C(=O)N[C@@H](CCCNC(=N)N)C(=O)N[C@@H](CCCNC(=N)N)C(=O)N[C@@H](CCCNC(=N)N)C(=O)N[C@@H](CCCNC(=N)N)C(=O)N[C@@H](CCCNC(=N)N)C(=O)N[C@@H](CCCNC(=N)N)C(=O)N[C@@H](CC(N)=O)C(=O)N4CCC[C@H]4C(=O)NCC(=O)N[C@@H](Cc4ccc(O)cc4)C(N)=O)nc(C)c3c2C)cc1 ({X1-Aoc}-GGGRRRRRRRRRNPGY-NH2)
Activity (MIA PaCa-2 [11]): 13.3%
Activity (MIA PaCa-2 [12]): 10.7%
Activity (MIA PaCa-2 [13]): 0.95%
viability at 5 µM (MIA PaCa-2 [16]): 88.7%
Activity (MIA PaCa-2 [17]): inactive
Activity (MIA PaCa-2 [19]): 3.48%
Activity (MIA PaCa-2 [20]): 16.8%
viability at 10 µM (MIA PaCa-2 [21]): 73.3%
Activity (MIA PaCa-2 [22]): inactive
Activity (MIA PaCa-2 [26]): 2.05%
Activity (MIA PaCa-2 [27]): 3.9%
viability at 20 µM (MIA PaCa-2 [30]): 59.7%
Activity (MIA PaCa-2 [31]): 6.85%
Activity (MIA PaCa-2 [32]): 19.7%
